# Measurements reported in patent publication US20240122180A1, “FUNGICIDAL HALOMETHYL KETONES AND HYDRATES AND THEIR MIXTURES” (FMC Corporation, priority 2020, published 2024).
# Tests used:
# Assay type in all cases: in vivo
# [1] = test system: Phakopsora pachyrhizi (the causal agent of Asian soybean rust); assay: Test F: Compound 32 or 64 alone and in mixtures on soybean seedlings, observed (Obsd) and Colby expected (Exp) disease control; settings: for pest or weed control at 46.795 ppm: epoxiconazole 46.795 ppm alone; for pest or weed control at 89.631 ppm: epoxiconazole 89.631 ppm alone; for pest or weed control at 138.129 ppm: chlorothalonil 138.129 ppm alone; for pest or weed control at 222.081 ppm: chlorothalonil 222.081 ppm alone; for pest or weed control at 37.333 ppm: cyproconazole 37.333 ppm alone; for pest or weed control at 64.883 ppm: cyproconazole 64.883 ppm alone; for pest or weed control at 78.393 ppm: fenpropidin 78.393 ppm alone; for pest or weed control at 161.74 ppm: fenpropidin 161.740 ppm alone; for pest or weed control at 242.823 ppm: fenpropimorph 242.823 ppm alone; for pest or weed control at 458.587 ppm: fenpropimorph 458.587 ppm alone
# Description: The general protocol for preparing test compositions for Test F was as follows: Compound 32, Compound 64, azoxystrobin, benzovindiflupyr, bixafen, chlorothalonil, cyproconazole, epoxiconazole, fenpropidin, fenpropimorph, fluindapyr, flutriafol, fluxapyroxad, metominostrobin, picoxystrobin, prothioconazole, pydiflumetofen, pyraclostrobin, tebuconazole and trifloxystrobin were obtained as unformulated, technical-grade materials. Copper hydroxide and mancozeb was obtained as a formulated product marketed under the trademarks KOCIDE 3000 and MANZATE, respectively. Unformulated materials were first dissolved in acetone and then suspended at the desired concentration (in ppm) in acetone and purified water (50/50 mix by volume) containing 250 ppm of the surfactant Trem® 014 (polyhydric alcohol esters). Formulated materials were dispersed in sufficient water to give the desired concentration, and neither organic solvent nor surfactant was added to the suspension. The resulting test mixtures were then used in Test F. The tests were run on four individual plants and the results reported as the mean average of the four plants.
# The presence of a synergistic effect between two active ingredients was established with the aid of the Colby equation (see Colby, S. R. “Calculating Synergistic and Antagonistic Responses of Herbicide Combinations”, Weeds, (1967), 15, 20-22):
# Using the method of Colby, the presence of a synergistic interaction between two active ingredients is established by first calculating the predicted activity, p, of the mixture based on activities of the two components applied alone. If p is lower than the experimentally established effect, synergism has occurred. In the equation above, A is the fungicidal activity in percentage control of one component applied alone at rate x. The B term is the fungicidal activity in percentage control of the second component applied at rate y. The equation estimates p, the expected fungicidal activity of the mixture of A at rate x with B at rate y if their effects are strictly additive and no interaction has occurred.
# The test mixture was sprayed to the point of run-off on soybean seedlings. The following day the seedlings were inoculated with a spore suspension of Phakopsora pachyrhizi (the causal agent of Asian soybean rust) and incubated in a saturated atmosphere at 22° C. for 24 h and then moved to a growth chamber at 22° C. for 8 days, after which time visual disease ratings were made.
# Results for Test F are given in Tables B-1 through I-1 for Compound 32 and Tables B-2 through I-2 for Compound 64. Each table corresponds to a set of evaluations performed together at the same time. In each table, a rating of 100 indicates 100% disease control and a rating of 0 indicates no disease control (relative to the controls). Columns labeled “Obsd” indicate the average of results observed from test run on four individual plants. Columns labeled “Exp” indicate the expected value for each treatment mixture using the Colby equation.
# [2] = test system: Phakopsora pachyrhizi (the causal agent of Asian soybean rust); assay: Test A: preventive spray on soybean seedlings, visual disease rating (100 = 100% control; * 50 ppm, ** 10 ppm, *** 250 ppm); settings: 100 = 100% disease control, 0 = no control; for pest or weed control at 10 ppm / pest or weed control at 50 ppm: Phakopsora pachyrhizi
# Method in brief: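 Soybean seedlings sprayed to run-off with compound suspended in acetone/water with 250 ppm PEG400 surfactant, inoculated next day with P. pachyrhizi spores. Kept 24 h saturated at 22 °C, then 8 days at 22 °C before visual rating of disease control (0-100) relative to controls.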
# [3] = test system: Puccinia recondita f. sp. tritici (the causal agent of wheat leaf rust); assay: Test B: preventive spray on wheat seedlings, disease rating (100 = 100% control; * 50 ppm, ** 10 ppm, *** 250 ppm); settings: 100 = 100% disease control, 0 = no control; for pest or weed control at 10 ppm / pest or weed control at 50 ppm: Puccinia recondita
# Method in brief: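 Wheat seedlings sprayed to run-off with compound in acetone/water (50/50) containing 250 ppm PEG400, inoculated next day with Puccinia recondita f. sp. tritici spores. Held 24 h saturated at 20° C, then 6 days at 20° C; disease control rated 0–100 relative to controls.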
# [4] = Phakopsora pachyrhizi, Table F-1
# [5] = Phakopsora pachyrhizi, Table F-2
# [6] = Phakopsora pachyrhizi, Table G-1
# [7] = Phakopsora pachyrhizi, Table G-2
# [8] = Phakopsora pachyrhizi, Table E-2
# [9] = Phakopsora pachyrhizi, Table I-1
# [10] = Phakopsora pachyrhizi, Table I-2
# [11] = Phakopsora pachyrhizi, Table D-1
# [12] = Phakopsora pachyrhizi, Table D-2
compound,measurement,setting,value
Cn1cc(C(=O)Nc2cccc3c2[C@@H]2CC[C@H]3C2=C(Cl)Cl)c(C(F)F)n1 (racemic) [benzovindiflupyr],Obsd disease control,"[1]; benzovindiflupyr 0.606 ppm alone, Table G-1",67%
same,Obsd disease control,"[1]; benzovindiflupyr 0.606 ppm alone, Table G-2",67%
same,Obsd disease control,"[1]; benzovindiflupyr 0.980 ppm alone, Table G-1",67%
same,Obsd disease control,"[1]; benzovindiflupyr 0.980 ppm alone, Table G-2",67%
Fc1ccc([C@]2(Cn3cncn3)O[C@H]2c2ccccc2Cl)cc1 (racemic) [epoxiconazole],pest or weed control at 46.795 ppm,[1]; [4],23%
same,pest or weed control at 46.795 ppm,[1]; [5],23%
same,pest or weed control at 89.631 ppm,[1]; [4],70%
same,pest or weed control at 89.631 ppm,[1]; [5],70%
CO/C=C(/C(=O)OC)c1ccccc1Oc1cc(Oc2ccccc2C#N)ncn1 [azoxystrobin],Obsd disease control,"[1]; azoxystrobin 95.873 ppm alone, Table E-1",70%
same,Obsd disease control,"[1]; azoxystrobin 95.873 ppm alone, Table E-2",70%
same,Obsd disease control,"[1]; azoxystrobin 169.226 ppm alone, Table E-1",88%
same,Obsd disease control,"[1]; azoxystrobin 169.226 ppm alone, Table E-2",88%
Cn1cc(C(=O)Nc2ccc(F)cc2-c2ccc(Cl)c(Cl)c2)c(C(F)F)n1 [bixafen],Obsd disease control,"[1]; bixafen 11.327 ppm alone, Table C-1",54%
same,Obsd disease control,"[1]; bixafen 11.327 ppm alone, Table C-2",54%
same,Obsd disease control,"[1]; bixafen 19.525 ppm alone, Table C-1",55%
same,Obsd disease control,"[1]; bixafen 19.525 ppm alone, Table C-2",55%
N#Cc1c(Cl)c(Cl)c(Cl)c(C#N)c1Cl [chlorothalonil],pest or weed control at 138.129 ppm,[1]; [6],59%
same,pest or weed control at 138.129 ppm,[1]; [7],59%
same,pest or weed control at 222.081 ppm,[1]; [6],85%
same,pest or weed control at 222.081 ppm,[1]; [7],85%
CCOC(=O)c1cnn(Cc2ccc(O/C=C(\OCC#N)C(F)(F)F)cc2)c1 [compound 400],Test A disease control rating,[2]; 50 ppm test suspension,100%
same,Test B disease control rating,[3]; 50 ppm test suspension,0%
CCOC(=O)c1ccn(Cc2cc(C)cc(O/C=C(\OCC)C(F)(F)F)c2)n1 [compound 405],Test A disease control rating,[2]; 50 ppm test suspension,0%
same,Test B disease control rating,[3]; 50 ppm test suspension,0%
CCOC(=O)c1cnn(Cc2cc(C)cc(O/C=C(\OCC)C(F)(F)F)c2)c1 [compound 406],Test A disease control rating,[2]; 50 ppm test suspension,0%
same,Test B disease control rating,[3]; 50 ppm test suspension,0%
CCOC(=O)c1ccn(Cc2ccc(OC)c(O/C=C(\OCC)C(F)(F)F)c2)n1 [compound 407],Test A disease control rating,[2]; 50 ppm test suspension,0%
same,Test B disease control rating,[3]; 50 ppm test suspension,0%
CCOC(=O)c1cnn(Cc2ccc(OC)c(O/C=C(\OCC)C(F)(F)F)c2)c1 [compound 408],Test A disease control rating,[2]; 50 ppm test suspension,44%
same,Test B disease control rating,[3]; 50 ppm test suspension,0%
CCNC(=O)N1CC(c2ccc(OCC3(C(F)(F)F)OCCO3)cc2)C1 [compound 411],Test A disease control rating,[2]; 50 ppm test suspension,87%
same,Test B disease control rating,[3]; 50 ppm test suspension,0%
CCNC(=O)N1CC(c2ccc(OC=C(OCC)C(F)(F)F)cc2)C1 [compound 412],Test A disease control rating,[2]; 50 ppm test suspension,100%
same,Test B disease control rating,[3]; 50 ppm test suspension,0%
CCOC(=O)c1cnn(CCCc2cccc(OCC(O)(O)C(F)(F)F)c2)c1 [compound 417],pest or weed control at 10 ppm,[2]; 10 ppm test suspension,0%
same,pest or weed control at 10 ppm,[3]; 10 ppm test suspension,0%
CCOC(=O)c1cnn(Cc2ccc(F)c(O/C=C(\OCC)C(F)(F)F)c2)c1 [compound 418],Test A disease control rating,[2]; 10 ppm test suspension,0%
same,Test B disease control rating,[3]; 10 ppm test suspension,0%
CCOC(=O)c1ccnn1Cc1ccc(F)c(O/C=C(\OCC)C(F)(F)F)c1 [compound 419],Test A disease control rating,[2]; 10 ppm test suspension,0%
same,Test B disease control rating,[3]; 10 ppm test suspension,0%
CCOC(=O)c1ccn(Cc2ccc(F)c(O/C=C(\OCC)C(F)(F)F)c2)n1 [compound 420],Test A disease control rating,[2]; 10 ppm test suspension,0%
same,Test B disease control rating,[3]; 10 ppm test suspension,0%
CCOC(=O)c1cnn(CCCc2cccc(O/C=C(\OCC)C(F)(F)F)c2)c1 [compound 421],Test A disease control rating,[2]; 10 ppm test suspension,0%
same,Test B disease control rating,[3]; 10 ppm test suspension,0%
CCOC(=O)c1cnn(Cc2ccc(O/C=C(\OS(=O)(=O)C(F)(F)F)C(F)(F)F)cc2)c1 [compound 422],Test A disease control rating,[2]; 50 ppm test suspension,100%
same,Test B disease control rating,[3]; 50 ppm test suspension,84%
OC(O)(COc1cccc(CCl)c1)C(F)(F)F [compound 423],pest or weed control at 50 ppm,[2]; 50 ppm test suspension,87%
same,pest or weed control at 50 ppm,[3]; 50 ppm test suspension,80%
CCOC(=O)c1cnn(COc2ccc(OCC(O)(O)C(F)(F)F)cc2F)c1 [compound 424],pest or weed control at 10 ppm,[2]; 10 ppm test suspension,97%
same,pest or weed control at 10 ppm,[3]; 10 ppm test suspension,41%
CCOC(=O)c1cnn(COc2ccc(O/C=C(\OCC)C(F)(F)F)cc2F)c1 [compound 425],pest or weed control at 10 ppm,[2]; 10 ppm test suspension,100%
same,pest or weed control at 10 ppm,[3]; 10 ppm test suspension,0%
CCOC(=COc1ccc(COC)cc1)C(F)(F)F [compound 433],Test A disease control rating,[2]; 50 ppm test suspension,0%
same,Test B disease control rating,[3]; 50 ppm test suspension,0%
CCOC(=COc1ccc(CCl)cc1)C(F)(F)F [compound 434],Test A disease control rating,[2]; 50 ppm test suspension,0%
same,Test B disease control rating,[3]; 50 ppm test suspension,0%
Cc1ccc(OCC2(C(F)(F)F)OCCO2)c(F)c1 [compound 442],pest or weed control at 50 ppm,[2]; 50 ppm test suspension,0%
same,pest or weed control at 50 ppm,[3]; 50 ppm test suspension,0%
CCOC(=O)c1cnn(Cc2ccc(NCC3(C(F)(F)F)OCCO3)cc2)c1 [compound 443],Test A disease control rating,[2]; 50 ppm test suspension,48%
same,Test B disease control rating,[3]; 50 ppm test suspension,0%
CCOC(=COc1ccc(CSC(C)=O)cc1)C(F)(F)F [compound 445],Test A disease control rating,[2]; 50 ppm test suspension,38%
same,Test B disease control rating,[3]; 50 ppm test suspension,0%
CCOC(=O)c1cn(Cc2cccc(O/C=C(\OCC)C(F)(F)F)c2)cn1 [compound 446],pest or weed control at 10 ppm,[2]; 10 ppm test suspension,98%
same,pest or weed control at 10 ppm,[3]; 10 ppm test suspension,0%
CCOC(=O)c1cncn1Cc1cccc(O/C=C(\OCC)C(F)(F)F)c1 [compound 447],pest or weed control at 10 ppm,[2]; 10 ppm test suspension,0%
same,pest or weed control at 10 ppm,[3]; 10 ppm test suspension,0%
CCOC(=O)c1cnn(Cc2cc(O/C=C(\OCC)C(F)(F)F)ccc2C)c1 [compound 451],Test A disease control rating,[2]; 50 ppm test suspension,0%
same,Test B disease control rating,[3]; 50 ppm test suspension,0%
CCOC(=O)c1ccnn1Cc1cc(C)cc(O/C=C(\OCC)C(F)(F)F)c1 [compound 462],Test A disease control rating,[2]; 10 ppm test suspension,0%
same,Test B disease control rating,[3]; 10 ppm test suspension,0%
CCOC(=O)c1ccnn1Cc1ccc(OC)c(O/C=C(\OCC)C(F)(F)F)c1 [compound 463],Test A disease control rating,[2]; 10 ppm test suspension,0%
same,Test B disease control rating,[3]; 10 ppm test suspension,0%
CC(C1CC1)C(O)(Cn1cncn1)c1ccc(Cl)cc1 (stereo not shown) [cyproconazole],pest or weed control at 37.333 ppm,[1]; [8],44%
same,pest or weed control at 64.883 ppm,[1]; [8],68%
same,pest or weed control at 37.333 ppm,[1]; Table E-1,44%
same,pest or weed control at 64.883 ppm,[1]; Table E-1,68%
CC(Cc1ccc(C(C)(C)C)cc1)CN1CCCCC1 (stereo not shown) [fenpropidin],pest or weed control at 78.393 ppm,[1]; [9],45%
same,pest or weed control at 78.393 ppm,[1]; [10],45%
same,pest or weed control at 161.74 ppm,[1]; [9],68%
same,pest or weed control at 161.74 ppm,[1]; [10],68%
CC(Cc1ccc(C(C)(C)C)cc1)CN1C[C@@H](C)O[C@@H](C)C1 (stereo partly shown) [fenpropimorph],pest or weed control at 242.823 ppm,[1]; [11],33%
same,pest or weed control at 242.823 ppm,[1]; [12],33%
same,pest or weed control at 458.587 ppm,[1]; [11],44%
same,pest or weed control at 458.587 ppm,[1]; [12],44%
CC1CC(C)(C)c2c(F)ccc(NC(=O)c3cn(C)nc3C(F)F)c21 (stereo not shown) [fluindapyr],Obsd disease control,"[1]; fluindapyr 8.820 ppm alone, Table C-1",61%
same,Obsd disease control,"[1]; fluindapyr 8.820 ppm alone, Table C-2",61%
same,Obsd disease control,"[1]; fluindapyr 15.230 ppm alone, Table C-1",79%
same,Obsd disease control,"[1]; fluindapyr 15.230 ppm alone, Table C-2",79%
